# Tests used:
# menin = target: T1, menin (Homo sapiens, UniProt O00255); experiment: Isothermal Titration calorimetry (ITC); assay type: binding; conditions: FIG. 1
# T1 sequence (O00255 1-610): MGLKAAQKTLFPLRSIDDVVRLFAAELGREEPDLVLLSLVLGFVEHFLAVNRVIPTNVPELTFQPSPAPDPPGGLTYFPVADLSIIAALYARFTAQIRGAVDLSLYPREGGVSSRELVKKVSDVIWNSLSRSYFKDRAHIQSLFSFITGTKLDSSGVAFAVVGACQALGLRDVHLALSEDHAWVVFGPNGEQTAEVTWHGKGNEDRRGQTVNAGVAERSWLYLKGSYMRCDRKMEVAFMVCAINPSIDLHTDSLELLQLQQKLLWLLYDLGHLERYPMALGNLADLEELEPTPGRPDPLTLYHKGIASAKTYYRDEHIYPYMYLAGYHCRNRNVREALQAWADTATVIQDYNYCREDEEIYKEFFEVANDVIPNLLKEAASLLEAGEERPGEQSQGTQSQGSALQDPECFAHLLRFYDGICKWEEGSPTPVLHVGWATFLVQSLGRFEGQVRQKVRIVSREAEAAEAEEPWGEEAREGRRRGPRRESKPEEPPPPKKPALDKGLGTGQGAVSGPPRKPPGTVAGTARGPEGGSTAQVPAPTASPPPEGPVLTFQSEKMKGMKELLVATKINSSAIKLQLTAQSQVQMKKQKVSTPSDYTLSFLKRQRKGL
# [1] = system: Hoxa9 and Meis1 expression in MLL-AF9 BMC; experiment: qRT-PCR of Hoxa9 and Meis1; assay type: cell-based, mouse; conditions: FIG. 10
# [2] = target: T2, menin-MLL-AF9 interaction (Homo sapiens, UniProt O00255); experiment: Co-Immunoprecipitation (co-IP) in HEK293 cells transfected with MLL-AF9; assay type: cell-based; conditions: FIG. 2
# T2 construct: performed in HEK293 cells transfected with MLL-AF9; endogenous in cells; host or cells: HEK293
# T2 sequence (O00255 1-610): T1 sequence (O00255 1-610)
# [3] = system: MLL-AF9 transformed mouse bone marrow cells (BMC); experiment: MTT cell viability assay in transformed BMC; assay type: cell-based; conditions: 72 h incubation, E2H-HLF transformed BMC as negative control, FIG. 3
# [4] = system: mice model of MLL-AF9 leukemia; experiment: In vivo efficacy in mice model of MLL-AF9 leukemia; conditions: once daily i.p. injections of 75 mg/kg, FIG. 18
# [5] = system: human MLL leukemia cell lines; experiment: Growth / MTT cell viability in human MLL leukemia cell lines; assay type: cell-based
# MLL-AF9 BMC [6] = experiment: Colony formation assay; assay type: cell-based, mouse; conditions: FIG. 7
# menin-MLL interaction = target: T3, menin-MLL interaction (Homo sapiens, UniProt O00255); experiment: biochemical
# T3 sequence (O00255 1-610): T1 sequence (O00255 1-610)
# Text: Fluorescence Polarization Assay.
# Compounds that inhibit the interaction decrease the fluorescence anisotropy which is being used as a read-out for compound screening and for IC50 determination.
# MLL-AF9 BMC [7] = experiment: Differentiation (CD11b expression, cell morphology); assay type: cell-based, mouse; conditions: change in CD11b expression and cell morphology, FIGS. 8, 9
# MLL-AF9 transformed BMC = experiment: Growth curves experiments in transformed BMC; assay type: cell-based, mouse; conditions: MLL-AF9 BMC vs Hoxa9/Meis1 transformed BMC (negative control), FIG. 5
# [8] = system: non-MLL leukemia cell lines; experiment: Growth in non-MLL leukemia cell lines; assay type: cell-based; conditions: FIG. 13B
IC50 (menin-MLL interaction),SMILES,expression of downstream targets of MLL fusion proteins: Hoxa9 and Meis1 [1],inhibition of the menin-MLL-AF9 interaction [2],proliferation of MLL leukemia cells [3],other results
,"CC1(C)CN=C(N2CCN(c3ncnc4sc(CC(F)(F)F)cc34)CC2)S1 [Compound 1, 4-(4-(5,5-dimethyl-4,5-dihydrothiazol-2-yl)piperazin-1-yl)-6-(2,2,2-trifluoroethyl)thieno[2,3-d]pyrimidine]",downregulate expression,inhibition of the menin-MLL-AF9 interaction,selectively inhibit proliferation,binding to menin (menin): direct binding
,FC(F)(F)Cc1cc2c(NC3CCN(Cc4ccccc4)CC3)ncnc2s1 [Compound 108],downregulate expression,inhibition of the menin-MLL-AF9 interaction,selectively inhibit proliferation,"survival of leukemic mice [4]: Increase in survival; growth of human MLL leukemia cell lines ([5]; MTT, 3 days of incubation, FIG. 11): selectively inhibit growth; morphology of colonies (MLL-AF9 BMC [6]): changes morphology of colonies; colony number (MLL-AF9 BMC [6]; each round 7 days): reduces colony number"
100 to 510 nM,CC1(C)CN=C(N2C[C@@H]3C[C@H]2CN3c2ncnc3sc(CC(F)(F)F)cc23)S1 (racemic) [Compound 14],,,,
,"N#Cc1cc2cc(CN3CCC(Nc4ncnc5sc(CC(F)(F)F)cc45)CC3)ccc2[nH]1 [Compound 175, 5-((4-((6-(2,2,2-trifluoroethyl)thieno[2,3-d]pyrimidin-4-yl)amino)piperidin-1-yl)methyl)-1H-indole-2-carbonitrile]",downregulate expression,inhibition of the menin-MLL-AF9 interaction,,differentiation (MLL-AF9 BMC [7]): Differentiation induced; selectivity towards MLL fusion protein transformed cells (MLL-AF9 transformed BMC): great selectivity; growth of human MLL leukemia cell lines ([5]; FIG. 13A): selectively inhibits growth; effect in non-MLL leukemia cell lines [8]: limited effect
500 to 2000 nM,CC(F)(F)Cc1cc2c(NC3CCN(Cc4ccccc4)CC3)ncnc2s1 [Compound 155],,,,

# From patent US10160769B2, “Compositions comprising thienopyrimidine and thienopyridine compounds and methods of use thereof” (The Regents of the University of Michigan, priority 2013, dated 2018)
